Experiment [1] has as its target Hepatocyte growth factor receptor (Homo sapiens, UniProt P08581). In words: Selectivity interaction (Rxn Biology Kinase assay) EUB0001632a MET. The note with it: at 10 µM.
For experiment [2], the target named is Mitotic checkpoint serine/threonine-protein kinase BUB1 (Homo sapiens, UniProt O43683). In words: Selectivity interaction (KinomeScan (DiscoverX)) EUB0000607a BUB1. As to conditions: at 10 µM.
The target of experiment [3] is Protein arginine N-methyltransferase 5 (Homo sapiens, UniProt O14744). As to conditions: at 10 µM.
Experiment [4] has as its target Delta-type opioid receptor (Homo sapiens, UniProt P41143). In words: Selectivity interaction (Opiate Delta receptor assay, human recombinant ) EUB0000877a OPRD1.
Experiment [5] addresses T1, Inhibitor of nuclear factor kappa-B kinase subunit beta (Homo sapiens) (UniProt O14920).
T1 sequence (whole entry): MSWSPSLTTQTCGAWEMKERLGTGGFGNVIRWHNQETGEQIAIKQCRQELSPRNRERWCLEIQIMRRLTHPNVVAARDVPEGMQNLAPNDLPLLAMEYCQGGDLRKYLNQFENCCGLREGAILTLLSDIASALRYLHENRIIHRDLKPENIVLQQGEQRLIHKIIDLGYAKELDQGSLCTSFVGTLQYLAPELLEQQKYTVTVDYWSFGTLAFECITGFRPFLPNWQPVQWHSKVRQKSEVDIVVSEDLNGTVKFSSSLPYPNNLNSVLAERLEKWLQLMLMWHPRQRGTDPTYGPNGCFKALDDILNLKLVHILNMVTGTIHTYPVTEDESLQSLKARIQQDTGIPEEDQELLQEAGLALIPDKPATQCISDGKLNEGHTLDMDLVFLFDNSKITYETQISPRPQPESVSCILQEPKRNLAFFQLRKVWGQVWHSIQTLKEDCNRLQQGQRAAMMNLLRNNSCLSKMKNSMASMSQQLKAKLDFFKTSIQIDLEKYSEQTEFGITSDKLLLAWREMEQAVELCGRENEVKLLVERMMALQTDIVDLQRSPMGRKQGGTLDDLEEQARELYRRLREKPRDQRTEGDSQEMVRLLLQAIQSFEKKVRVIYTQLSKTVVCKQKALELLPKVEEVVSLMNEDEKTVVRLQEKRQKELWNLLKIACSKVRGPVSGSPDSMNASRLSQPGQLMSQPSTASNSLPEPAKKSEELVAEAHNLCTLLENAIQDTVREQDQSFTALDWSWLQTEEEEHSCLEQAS
Put plainly: Selectivity interaction (KinomeScan (DiscoverX)) EUB0000655a IKBKB. As to conditions: at 10 µM.

Experiment [6] deals with T2, NUAK family SNF1-like kinase 2 (Homo sapiens) (UniProt Q9H093).
T2 sequence (whole entry): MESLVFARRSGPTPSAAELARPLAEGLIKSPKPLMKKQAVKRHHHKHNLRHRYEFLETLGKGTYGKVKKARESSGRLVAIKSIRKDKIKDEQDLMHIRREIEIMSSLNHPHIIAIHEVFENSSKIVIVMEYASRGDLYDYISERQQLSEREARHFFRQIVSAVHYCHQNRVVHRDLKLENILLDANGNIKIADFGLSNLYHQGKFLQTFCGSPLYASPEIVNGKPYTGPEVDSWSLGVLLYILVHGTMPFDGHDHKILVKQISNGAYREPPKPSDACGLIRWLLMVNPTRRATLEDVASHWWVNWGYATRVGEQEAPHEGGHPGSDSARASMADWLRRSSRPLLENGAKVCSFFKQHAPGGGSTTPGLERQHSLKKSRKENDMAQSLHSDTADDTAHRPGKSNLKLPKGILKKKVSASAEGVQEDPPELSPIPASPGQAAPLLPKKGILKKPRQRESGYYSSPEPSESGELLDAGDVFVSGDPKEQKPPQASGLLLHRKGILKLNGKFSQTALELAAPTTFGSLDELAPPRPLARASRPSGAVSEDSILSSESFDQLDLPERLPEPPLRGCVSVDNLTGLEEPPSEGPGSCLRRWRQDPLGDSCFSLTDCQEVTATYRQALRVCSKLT
In words: Selectivity interaction (KinomeScan (DiscoverX)) EUB0001079a NUAK2. As to conditions: at 1 µM.

Experiment [7] concerns the target T3, Activin receptor type-1 (Homo sapiens) (UniProt Q04771).
T3 sequence (whole entry): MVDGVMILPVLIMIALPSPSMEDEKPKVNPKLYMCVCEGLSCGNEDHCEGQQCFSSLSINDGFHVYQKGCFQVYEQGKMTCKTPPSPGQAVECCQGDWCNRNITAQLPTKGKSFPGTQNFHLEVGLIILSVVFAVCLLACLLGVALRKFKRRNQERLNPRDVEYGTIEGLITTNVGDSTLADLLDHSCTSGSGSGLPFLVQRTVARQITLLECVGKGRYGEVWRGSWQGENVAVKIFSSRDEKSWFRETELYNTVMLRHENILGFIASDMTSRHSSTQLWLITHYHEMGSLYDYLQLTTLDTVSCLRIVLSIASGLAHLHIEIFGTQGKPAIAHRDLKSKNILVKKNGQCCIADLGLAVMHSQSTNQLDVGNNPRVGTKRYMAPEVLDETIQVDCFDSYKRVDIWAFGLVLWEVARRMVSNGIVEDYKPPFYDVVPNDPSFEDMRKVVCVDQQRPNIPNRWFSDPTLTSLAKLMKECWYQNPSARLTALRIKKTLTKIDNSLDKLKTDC
Put plainly: Selectivity interaction (KinomeScan (DiscoverX)) EUB0001079a ACVR1. The note with it: at 1 µM.

Experiment [8] addresses SRSF protein kinase 3 (Homo sapiens) (UniProt Q9UPE1). In words: Selectivity interaction (KinomeScan (DiscoverX)) EUB0001079a SRPK3. The note with it: at 1 µM.
The target of experiment [9] is Myosin-IIIa (Homo sapiens) (UniProt Q8NEV4). Put plainly: Selectivity interaction (KinomeScan (DiscoverX)) EUB0000229b MYO3A. As to conditions: at 10 µM.

By IC50 is commonly meant the point on the concentration scale where inhibition reaches its midpoint.

Mitotic checkpoint serine/threonine-protein kinase BUB1, sequence (O43683 whole entry, looked up): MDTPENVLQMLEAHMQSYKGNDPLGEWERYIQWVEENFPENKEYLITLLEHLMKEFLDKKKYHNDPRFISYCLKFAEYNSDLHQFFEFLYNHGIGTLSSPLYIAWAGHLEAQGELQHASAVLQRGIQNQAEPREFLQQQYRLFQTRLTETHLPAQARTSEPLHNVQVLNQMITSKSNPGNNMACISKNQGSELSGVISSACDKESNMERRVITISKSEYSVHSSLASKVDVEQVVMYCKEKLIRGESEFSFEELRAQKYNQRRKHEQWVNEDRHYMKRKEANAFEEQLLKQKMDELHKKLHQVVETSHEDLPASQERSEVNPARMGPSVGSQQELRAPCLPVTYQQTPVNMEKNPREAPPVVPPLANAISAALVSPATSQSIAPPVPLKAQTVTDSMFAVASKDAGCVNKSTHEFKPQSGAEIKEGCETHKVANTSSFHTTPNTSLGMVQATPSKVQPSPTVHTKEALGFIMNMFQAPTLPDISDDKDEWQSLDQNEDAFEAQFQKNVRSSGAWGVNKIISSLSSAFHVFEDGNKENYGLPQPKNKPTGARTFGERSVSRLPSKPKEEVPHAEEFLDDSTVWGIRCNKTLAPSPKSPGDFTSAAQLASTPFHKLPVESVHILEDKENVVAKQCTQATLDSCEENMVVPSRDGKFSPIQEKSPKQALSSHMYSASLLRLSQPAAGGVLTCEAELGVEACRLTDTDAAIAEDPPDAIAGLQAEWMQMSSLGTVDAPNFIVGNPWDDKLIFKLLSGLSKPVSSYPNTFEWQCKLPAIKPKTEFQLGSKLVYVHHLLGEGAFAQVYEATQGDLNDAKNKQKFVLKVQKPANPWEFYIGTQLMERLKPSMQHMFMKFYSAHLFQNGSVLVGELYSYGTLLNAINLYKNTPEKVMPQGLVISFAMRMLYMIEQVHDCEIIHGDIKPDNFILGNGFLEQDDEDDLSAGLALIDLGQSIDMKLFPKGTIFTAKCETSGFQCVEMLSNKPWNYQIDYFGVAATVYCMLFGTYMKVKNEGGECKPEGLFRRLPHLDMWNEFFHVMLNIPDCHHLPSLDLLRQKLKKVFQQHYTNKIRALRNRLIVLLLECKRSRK
SRSF protein kinase 3 (Homo sapiens), sequence (Q9UPE1 whole entry): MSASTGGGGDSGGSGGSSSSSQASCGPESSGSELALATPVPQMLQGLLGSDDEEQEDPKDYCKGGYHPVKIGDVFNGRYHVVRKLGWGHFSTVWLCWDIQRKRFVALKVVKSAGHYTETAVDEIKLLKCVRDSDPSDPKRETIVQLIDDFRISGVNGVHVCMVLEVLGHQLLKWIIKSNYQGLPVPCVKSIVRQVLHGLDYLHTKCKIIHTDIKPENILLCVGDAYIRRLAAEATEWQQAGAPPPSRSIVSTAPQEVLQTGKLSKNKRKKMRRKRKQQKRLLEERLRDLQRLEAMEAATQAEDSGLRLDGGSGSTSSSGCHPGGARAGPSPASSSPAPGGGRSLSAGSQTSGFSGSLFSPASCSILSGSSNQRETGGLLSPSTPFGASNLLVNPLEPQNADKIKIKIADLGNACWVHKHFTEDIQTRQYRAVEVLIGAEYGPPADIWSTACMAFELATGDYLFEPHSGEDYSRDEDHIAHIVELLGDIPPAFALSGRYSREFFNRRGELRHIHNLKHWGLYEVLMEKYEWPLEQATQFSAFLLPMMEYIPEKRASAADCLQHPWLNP
Delta-type opioid receptor, sequence (P41143 whole entry): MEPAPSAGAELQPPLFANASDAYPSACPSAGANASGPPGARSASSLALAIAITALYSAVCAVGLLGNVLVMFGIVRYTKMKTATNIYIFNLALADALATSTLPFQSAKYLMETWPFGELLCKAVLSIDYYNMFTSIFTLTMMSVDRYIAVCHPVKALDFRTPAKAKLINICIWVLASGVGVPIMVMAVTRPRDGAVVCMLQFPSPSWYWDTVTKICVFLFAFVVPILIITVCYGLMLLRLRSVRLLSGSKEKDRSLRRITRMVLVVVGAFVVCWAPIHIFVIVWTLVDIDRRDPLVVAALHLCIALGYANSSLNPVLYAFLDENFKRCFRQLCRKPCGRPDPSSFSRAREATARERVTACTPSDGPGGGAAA
Protein arginine N-methyltransferase 5, sequence (O14744 whole entry): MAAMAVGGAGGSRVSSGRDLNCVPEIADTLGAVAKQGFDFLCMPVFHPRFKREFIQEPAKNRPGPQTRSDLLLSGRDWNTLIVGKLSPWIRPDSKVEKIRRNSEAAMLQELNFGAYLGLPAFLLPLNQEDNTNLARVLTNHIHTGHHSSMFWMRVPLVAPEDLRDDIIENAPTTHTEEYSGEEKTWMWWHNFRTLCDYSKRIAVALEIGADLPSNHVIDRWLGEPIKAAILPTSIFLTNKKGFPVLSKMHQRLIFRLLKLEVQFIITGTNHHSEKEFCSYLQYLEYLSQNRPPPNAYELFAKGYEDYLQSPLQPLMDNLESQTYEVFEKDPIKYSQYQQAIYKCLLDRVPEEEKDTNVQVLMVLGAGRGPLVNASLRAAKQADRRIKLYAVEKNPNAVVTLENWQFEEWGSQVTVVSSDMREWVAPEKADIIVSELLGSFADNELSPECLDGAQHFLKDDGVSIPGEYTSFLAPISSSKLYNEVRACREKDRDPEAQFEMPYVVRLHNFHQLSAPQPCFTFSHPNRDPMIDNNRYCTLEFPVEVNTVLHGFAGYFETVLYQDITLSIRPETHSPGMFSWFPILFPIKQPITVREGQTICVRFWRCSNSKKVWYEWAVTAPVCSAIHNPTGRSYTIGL
Hepatocyte growth factor receptor, sequence (P08581 whole entry): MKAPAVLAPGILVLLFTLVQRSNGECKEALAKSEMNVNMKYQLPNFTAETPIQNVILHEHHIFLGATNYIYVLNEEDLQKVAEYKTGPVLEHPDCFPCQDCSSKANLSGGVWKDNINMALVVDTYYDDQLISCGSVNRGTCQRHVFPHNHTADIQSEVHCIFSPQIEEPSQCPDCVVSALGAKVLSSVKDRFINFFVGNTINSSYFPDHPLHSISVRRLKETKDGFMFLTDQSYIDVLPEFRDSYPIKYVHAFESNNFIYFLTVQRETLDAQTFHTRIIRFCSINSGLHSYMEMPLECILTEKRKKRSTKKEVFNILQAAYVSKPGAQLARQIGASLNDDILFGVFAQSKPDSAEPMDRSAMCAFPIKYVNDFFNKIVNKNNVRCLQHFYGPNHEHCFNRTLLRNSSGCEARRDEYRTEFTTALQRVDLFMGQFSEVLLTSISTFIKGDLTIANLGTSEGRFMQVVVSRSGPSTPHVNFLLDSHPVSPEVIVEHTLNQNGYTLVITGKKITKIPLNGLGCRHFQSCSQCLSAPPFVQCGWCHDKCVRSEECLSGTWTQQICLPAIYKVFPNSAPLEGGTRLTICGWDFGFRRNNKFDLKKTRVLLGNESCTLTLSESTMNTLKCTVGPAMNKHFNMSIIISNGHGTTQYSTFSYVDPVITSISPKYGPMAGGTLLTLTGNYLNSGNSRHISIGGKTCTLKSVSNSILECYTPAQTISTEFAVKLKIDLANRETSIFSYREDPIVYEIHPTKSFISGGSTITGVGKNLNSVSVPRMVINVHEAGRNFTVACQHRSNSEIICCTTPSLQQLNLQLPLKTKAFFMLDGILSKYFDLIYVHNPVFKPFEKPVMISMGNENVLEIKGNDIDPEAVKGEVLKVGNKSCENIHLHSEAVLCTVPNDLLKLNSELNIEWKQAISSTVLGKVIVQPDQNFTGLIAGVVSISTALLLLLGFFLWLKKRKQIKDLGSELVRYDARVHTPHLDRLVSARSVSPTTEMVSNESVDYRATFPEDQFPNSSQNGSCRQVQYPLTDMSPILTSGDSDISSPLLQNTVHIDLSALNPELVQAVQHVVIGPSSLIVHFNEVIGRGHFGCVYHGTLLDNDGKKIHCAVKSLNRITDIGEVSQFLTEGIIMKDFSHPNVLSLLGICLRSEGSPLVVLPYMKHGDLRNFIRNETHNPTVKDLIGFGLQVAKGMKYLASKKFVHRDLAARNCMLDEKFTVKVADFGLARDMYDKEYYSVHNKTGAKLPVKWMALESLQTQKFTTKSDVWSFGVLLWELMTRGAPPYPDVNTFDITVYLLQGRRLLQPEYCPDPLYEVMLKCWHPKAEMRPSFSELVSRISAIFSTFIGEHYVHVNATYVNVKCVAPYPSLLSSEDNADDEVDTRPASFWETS

On to `Cn1cc(-n2cnc3c(NCc4nc5cc(Cl)c(Cl)cc5[nH]4)nc(N4CCOCC4)nc32)cn1`, for which, in [1], the % of inhibition was -31.5%. `CNC(=O)Nc1ccc(-c2nc(N3CC4CCC(C3)O4)c3cnn(C4CCC5(CC4)OCCO5)c3n2)cc1` yielded a % of control in experiment [2] of 52%. `CNCCN1CCC(c2cc(CN(C)C(=O)c3cccc(Oc4ccccc4)c3)ccn2)CC1` returned a % activity in experiment [3] of more than 90%.

Consider `CCC(=O)N1CC[C@H](Nc2ncnc3c2CN(c2cnc(OC)c(C(F)(F)F)c2)CC3)C1` [LENIOLISIB], for which, in experiment [4], the IC50 is more than 30 µM. For `CN(C)CCOc1ccc(-c2nc(-c3ccncc3)c(-c3ccc4c(c3)CC/C4=N\O)[nH]2)cc1`, the % of control in experiment [5] turned out to be 100%. As for `Nc1cnc(N2CCc3cc(S(=O)(=O)Nc4c(F)cc(Cl)cc4F)cc(N4CCCC4=O)c32)nc1` [TP-020n], the % of control in [6], in [7] and in experiment [8] was 100% each time. Consider `COc1cc(N(C)c2ccnc3ccc(C(F)(F)F)cc23)cc(OC)c1OC`, for which the % binding in experiment [9] is 94%.

These data come from ChEMBL document CHEMBL5465560, “Selectivity Literature for EUbOPEN Chemogenomic Library” (2024).
